{"source": "paper PMC7181660", "about": "“A novel specific PERK activator reduces toxicity and extends survival in Huntington's disease models” (Scientific Reports, 2020)", "experiment_in_all_cases": "biochemical", "assay_type_in_all_cases": "biochemical", "key": {"panel of 391 kinases [1]": {"target": "panel of 391 kinases (Homo sapiens, UniProt P00533)", "settings": "EGFR, MK-28 1 µM, ATP 1 µM"}, "panel of 391 kinases [2]": {"target": "panel of 391 kinases (Homo sapiens, UniProt O15075)", "settings": "DCAMKL1, MK-28 1 µM, ATP 1 µM"}, "panel of 391 kinases [3]": {"target": "panel of 391 kinases (Homo sapiens, UniProt Q92918)", "settings": "HPK1/MAP4K1, MK-28 1 µM, ATP 1 µM"}, "panel of 391 kinases [4]": {"target": "panel of 391 kinases (Homo sapiens, UniProt P42685)", "settings": "FRK/PTK5, MK-28 1 µM, ATP 1 µM"}, "panel of 391 kinases [5]": {"target": "panel of 391 kinases (Homo sapiens, UniProt Q5S007)", "settings": "LRRK2, MK-28 1 µM, ATP 1 µM"}, "panel of 391 kinases [6]": {"target": "panel of 391 kinases (Homo sapiens, UniProt Q02763)", "sequence (Q02763 23-1124)": "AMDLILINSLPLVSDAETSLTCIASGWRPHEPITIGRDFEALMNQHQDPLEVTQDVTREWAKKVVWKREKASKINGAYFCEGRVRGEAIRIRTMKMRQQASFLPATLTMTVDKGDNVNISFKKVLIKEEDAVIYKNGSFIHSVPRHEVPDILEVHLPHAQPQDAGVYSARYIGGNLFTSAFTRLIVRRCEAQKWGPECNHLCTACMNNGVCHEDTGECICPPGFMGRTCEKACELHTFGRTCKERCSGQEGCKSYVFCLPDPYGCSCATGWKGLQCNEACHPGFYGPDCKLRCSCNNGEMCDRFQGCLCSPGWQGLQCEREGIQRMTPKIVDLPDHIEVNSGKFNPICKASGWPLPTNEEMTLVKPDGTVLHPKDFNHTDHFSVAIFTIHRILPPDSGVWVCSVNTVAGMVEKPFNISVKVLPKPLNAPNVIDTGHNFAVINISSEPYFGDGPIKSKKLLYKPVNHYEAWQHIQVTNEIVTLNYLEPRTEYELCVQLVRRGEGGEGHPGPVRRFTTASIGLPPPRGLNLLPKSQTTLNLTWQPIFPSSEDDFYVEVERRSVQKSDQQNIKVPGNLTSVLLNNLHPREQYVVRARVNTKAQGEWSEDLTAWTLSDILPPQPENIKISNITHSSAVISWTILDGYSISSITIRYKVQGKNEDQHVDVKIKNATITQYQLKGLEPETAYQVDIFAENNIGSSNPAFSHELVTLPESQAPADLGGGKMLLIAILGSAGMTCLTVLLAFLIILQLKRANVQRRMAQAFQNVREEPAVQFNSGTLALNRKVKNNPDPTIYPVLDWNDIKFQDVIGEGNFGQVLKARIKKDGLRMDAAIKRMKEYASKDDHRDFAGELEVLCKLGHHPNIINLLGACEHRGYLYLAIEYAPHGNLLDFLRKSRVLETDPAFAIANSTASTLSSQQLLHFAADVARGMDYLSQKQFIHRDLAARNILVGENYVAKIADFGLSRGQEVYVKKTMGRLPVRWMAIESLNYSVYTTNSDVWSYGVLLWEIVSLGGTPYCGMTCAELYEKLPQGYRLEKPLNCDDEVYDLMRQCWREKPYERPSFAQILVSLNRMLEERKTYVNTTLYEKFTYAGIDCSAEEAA", "settings": "TIE2/TEK, MK-28 1 µM, ATP 1 µM"}, "panel of 391 kinases [7]": {"target": "panel of 391 kinases (Homo sapiens, UniProt O94804)", "settings": "LOK/STK10, MK-28 1 µM, ATP 1 µM"}, "panel of 391 kinases [8]": {"target": "panel of 391 kinases (Homo sapiens, UniProt Q96S53)", "sequence (Q96S53 whole entry)": "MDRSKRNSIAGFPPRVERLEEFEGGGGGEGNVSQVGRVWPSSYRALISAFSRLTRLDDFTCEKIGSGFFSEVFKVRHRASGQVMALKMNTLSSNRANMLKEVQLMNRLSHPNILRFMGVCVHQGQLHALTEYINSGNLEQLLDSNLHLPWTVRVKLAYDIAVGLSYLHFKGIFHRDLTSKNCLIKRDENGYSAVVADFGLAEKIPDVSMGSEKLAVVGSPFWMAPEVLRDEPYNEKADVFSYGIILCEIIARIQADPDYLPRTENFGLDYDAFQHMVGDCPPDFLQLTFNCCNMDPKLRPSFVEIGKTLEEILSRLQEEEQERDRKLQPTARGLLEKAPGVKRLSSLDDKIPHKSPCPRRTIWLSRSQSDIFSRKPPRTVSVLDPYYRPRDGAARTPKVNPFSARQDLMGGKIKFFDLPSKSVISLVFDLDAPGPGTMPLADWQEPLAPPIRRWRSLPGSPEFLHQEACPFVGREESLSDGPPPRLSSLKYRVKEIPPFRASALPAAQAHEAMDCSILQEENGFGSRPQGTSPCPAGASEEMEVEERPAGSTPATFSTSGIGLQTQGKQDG", "settings": "TESK2, MK-28 1 µM, ATP 1 µM"}, "panel of 391 kinases [9]": {"target": "panel of 391 kinases (Homo sapiens, UniProt Q08881)", "sequence (Q08881 whole entry)": "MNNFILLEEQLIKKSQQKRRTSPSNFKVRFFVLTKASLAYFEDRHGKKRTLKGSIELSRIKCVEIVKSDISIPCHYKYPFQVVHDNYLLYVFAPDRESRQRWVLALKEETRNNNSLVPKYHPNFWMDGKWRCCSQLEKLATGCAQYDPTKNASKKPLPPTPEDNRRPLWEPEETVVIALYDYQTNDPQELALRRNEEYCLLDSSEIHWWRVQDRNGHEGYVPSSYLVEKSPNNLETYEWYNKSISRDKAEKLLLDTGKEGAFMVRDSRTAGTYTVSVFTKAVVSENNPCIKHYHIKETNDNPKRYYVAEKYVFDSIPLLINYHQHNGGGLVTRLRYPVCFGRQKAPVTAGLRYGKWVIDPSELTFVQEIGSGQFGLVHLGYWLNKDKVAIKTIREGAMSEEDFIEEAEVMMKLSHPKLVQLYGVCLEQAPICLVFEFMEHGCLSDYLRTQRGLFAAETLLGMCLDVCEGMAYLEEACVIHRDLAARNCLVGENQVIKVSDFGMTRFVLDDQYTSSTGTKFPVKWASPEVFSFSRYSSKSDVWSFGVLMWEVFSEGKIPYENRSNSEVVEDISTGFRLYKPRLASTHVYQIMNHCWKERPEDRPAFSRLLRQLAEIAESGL", "settings": "ITK, MK-28 1 µM, ATP 1 µM"}, "panel of 391 kinases [10]": {"target": "panel of 391 kinases (Homo sapiens, UniProt Q07002)", "settings": "CDK18/cyclin Y (PCTK3), MK-28 1 µM, ATP 1 µM"}, "panel of 391 kinases [11]": {"target": "panel of 391 kinases (Homo sapiens, UniProt Q9P289)", "sequence (Q9P289 whole entry)": "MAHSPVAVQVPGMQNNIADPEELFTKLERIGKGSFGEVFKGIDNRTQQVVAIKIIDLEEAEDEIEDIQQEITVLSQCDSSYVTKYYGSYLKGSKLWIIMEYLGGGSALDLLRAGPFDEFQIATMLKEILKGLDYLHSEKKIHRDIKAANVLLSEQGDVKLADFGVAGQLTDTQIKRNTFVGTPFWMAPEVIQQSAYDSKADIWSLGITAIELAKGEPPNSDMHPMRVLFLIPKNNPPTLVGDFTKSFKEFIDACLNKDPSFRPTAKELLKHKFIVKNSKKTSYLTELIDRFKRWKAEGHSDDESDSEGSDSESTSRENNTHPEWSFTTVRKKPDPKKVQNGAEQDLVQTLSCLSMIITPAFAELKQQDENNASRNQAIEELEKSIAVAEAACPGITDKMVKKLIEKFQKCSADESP", "settings": "MST4, MK-28 1 µM, ATP 1 µM"}, "panel of 391 kinases [12]": {"target": "panel of 391 kinases (Homo sapiens, UniProt P06239)", "settings": "LCK, MK-28 1 µM, ATP 1 µM"}, "panel of 391 kinases [13]": {"target": "panel of 391 kinases (Homo sapiens, UniProt Q00535)", "sequence (Q00535 whole entry)": "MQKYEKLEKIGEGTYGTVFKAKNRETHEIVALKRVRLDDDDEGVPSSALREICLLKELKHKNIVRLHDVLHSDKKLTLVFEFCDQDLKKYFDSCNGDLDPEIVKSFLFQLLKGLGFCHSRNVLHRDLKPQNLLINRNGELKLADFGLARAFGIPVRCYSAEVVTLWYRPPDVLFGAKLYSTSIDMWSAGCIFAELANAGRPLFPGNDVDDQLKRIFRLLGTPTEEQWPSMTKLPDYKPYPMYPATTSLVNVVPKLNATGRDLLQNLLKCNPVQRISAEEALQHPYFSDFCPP", "settings": "MK-28 1 µM, ATP 1 µM; for remaining activity at 1 µM: read-out: % Enzyme Activity (relative to DMSO controls)"}, "panel of 391 kinases [14]": {"target": "panel of 391 kinases (Homo sapiens, UniProt Q6PHR2)", "settings": "ULK3, MK-28 1 µM, ATP 1 µM"}, "panel of 391 kinases [15]": {"target": "panel of 391 kinases (Homo sapiens, UniProt Q9BZL6)", "sequence (Q9BZL6 whole entry)": "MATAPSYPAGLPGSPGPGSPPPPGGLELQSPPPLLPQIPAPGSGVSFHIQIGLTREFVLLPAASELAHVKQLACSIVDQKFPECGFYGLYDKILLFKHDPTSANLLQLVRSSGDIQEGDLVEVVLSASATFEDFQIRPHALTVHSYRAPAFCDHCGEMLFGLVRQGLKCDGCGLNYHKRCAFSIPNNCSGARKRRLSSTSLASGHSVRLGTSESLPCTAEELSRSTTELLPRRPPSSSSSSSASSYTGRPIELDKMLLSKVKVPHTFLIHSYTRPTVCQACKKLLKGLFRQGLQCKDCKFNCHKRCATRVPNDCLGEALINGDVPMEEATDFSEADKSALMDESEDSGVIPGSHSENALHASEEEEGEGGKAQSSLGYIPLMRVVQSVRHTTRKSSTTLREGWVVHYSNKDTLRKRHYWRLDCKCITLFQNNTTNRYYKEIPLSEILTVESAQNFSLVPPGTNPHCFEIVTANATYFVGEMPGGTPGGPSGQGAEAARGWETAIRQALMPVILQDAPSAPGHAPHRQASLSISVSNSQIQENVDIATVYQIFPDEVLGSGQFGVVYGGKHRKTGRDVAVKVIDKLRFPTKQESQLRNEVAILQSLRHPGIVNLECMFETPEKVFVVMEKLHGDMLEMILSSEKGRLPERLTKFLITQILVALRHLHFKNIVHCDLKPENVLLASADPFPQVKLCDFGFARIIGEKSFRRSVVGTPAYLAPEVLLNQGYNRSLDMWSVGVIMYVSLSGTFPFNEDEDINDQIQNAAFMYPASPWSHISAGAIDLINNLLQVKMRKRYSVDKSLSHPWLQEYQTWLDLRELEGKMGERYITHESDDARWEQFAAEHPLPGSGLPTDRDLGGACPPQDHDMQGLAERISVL", "settings": "PKD2/PRKD2, MK-28 1 µM, ATP 1 µM"}, "panel of 391 kinases [16]": {"target": "panel of 391 kinases (Homo sapiens, UniProt O00444)", "settings": "PLK4/SAK, MK-28 1 µM, ATP 1 µM"}, "panel of 391 kinases [17]": {"target": "panel of 391 kinases (Homo sapiens, UniProt Q04912)", "settings": "RON/MST1R, MK-28 1 µM, ATP 1 µM"}, "panel of 391 kinases [18]": {"target": "panel of 391 kinases (Homo sapiens, UniProt Q9BWU1)", "settings": "CDK19/cyclin C, MK-28 1 µM, ATP 1 µM"}, "panel of 391 kinases [19]": {"target": "panel of 391 kinases (Homo sapiens, UniProt Q15119)", "settings": "kinase PDK2/PDHK2, compound at 1 µM, single dose in duplicates, 1 µM ATP"}, "panel of 391 kinases [20]": {"target": "panel of 391 kinases (Homo sapiens, UniProt Q14289)", "settings": "PYK2, MK-28 1 µM, ATP 1 µM"}, "panel of 391 kinases [21]": {"target": "panel of 391 kinases (Homo sapiens, UniProt P51957)", "settings": "NEK4, MK-28 1 µM, ATP 1 µM"}, "panel of 391 kinases [22]": {"target": "panel of 391 kinases (Homo sapiens, UniProt Q96QT4)", "settings": "kinase TRPM7/CHAK1, compound at 1 µM, single dose in duplicates, 1 µM ATP"}, "panel of 391 kinases [23]": {"target": "panel of 391 kinases (Homo sapiens, UniProt P78362)", "settings": "SRPK2, MK-28 1 µM, ATP 1 µM"}, "panel of 391 kinases [24]": {"target": "panel of 391 kinases (Homo sapiens, UniProt P11362)", "sequence (P11362 22-822)": "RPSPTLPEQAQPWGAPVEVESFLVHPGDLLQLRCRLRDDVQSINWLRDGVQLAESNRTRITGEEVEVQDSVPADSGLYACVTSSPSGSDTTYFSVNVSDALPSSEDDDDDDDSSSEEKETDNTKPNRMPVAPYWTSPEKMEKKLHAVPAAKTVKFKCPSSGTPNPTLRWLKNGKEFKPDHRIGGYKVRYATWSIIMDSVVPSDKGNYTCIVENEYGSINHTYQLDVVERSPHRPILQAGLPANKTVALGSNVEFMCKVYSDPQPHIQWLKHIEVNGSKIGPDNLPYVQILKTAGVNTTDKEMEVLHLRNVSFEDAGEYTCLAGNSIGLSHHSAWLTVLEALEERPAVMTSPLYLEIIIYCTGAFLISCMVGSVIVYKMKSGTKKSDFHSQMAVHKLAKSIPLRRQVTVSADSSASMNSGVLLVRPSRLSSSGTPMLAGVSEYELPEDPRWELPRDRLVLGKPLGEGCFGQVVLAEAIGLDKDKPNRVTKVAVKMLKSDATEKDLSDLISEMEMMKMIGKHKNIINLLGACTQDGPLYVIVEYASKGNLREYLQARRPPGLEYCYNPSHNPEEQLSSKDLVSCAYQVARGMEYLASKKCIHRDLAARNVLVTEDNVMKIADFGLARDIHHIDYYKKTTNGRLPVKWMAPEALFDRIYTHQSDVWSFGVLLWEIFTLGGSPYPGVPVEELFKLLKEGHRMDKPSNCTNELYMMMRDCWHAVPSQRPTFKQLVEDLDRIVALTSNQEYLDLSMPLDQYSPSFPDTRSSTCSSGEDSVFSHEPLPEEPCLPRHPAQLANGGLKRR", "settings": "FGFR1, MK-28 1 µM, ATP 1 µM"}, "panel of 391 kinases [25]": {"target": "panel of 391 kinases (Homo sapiens, UniProt Q8WXR4)", "settings": "MYO3b, MK-28 1 µM, ATP 1 µM"}, "panel of 391 kinases [26]": {"target": "panel of 391 kinases (Homo sapiens, UniProt P50613)", "sequence (P50613 whole entry)": "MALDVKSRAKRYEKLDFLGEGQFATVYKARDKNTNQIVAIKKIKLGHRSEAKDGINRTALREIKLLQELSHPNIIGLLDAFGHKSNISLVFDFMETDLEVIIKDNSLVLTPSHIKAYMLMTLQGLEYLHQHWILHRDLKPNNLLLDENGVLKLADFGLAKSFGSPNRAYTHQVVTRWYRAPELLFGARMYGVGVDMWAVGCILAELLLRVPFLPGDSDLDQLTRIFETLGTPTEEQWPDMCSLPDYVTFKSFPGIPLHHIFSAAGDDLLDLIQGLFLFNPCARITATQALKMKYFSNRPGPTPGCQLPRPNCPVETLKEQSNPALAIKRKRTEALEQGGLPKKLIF", "settings": "CDK7/cyclin H, MK-28 1 µM, ATP 1 µM"}, "[27]": {"settings": "read-out: % Enzyme Activity (relative to DMSO controls)"}}, "note": "Like-named read-outs stand apart in the source and are kept apart here."}
{"smiles": "CN(/N=C\\c1ccc(O)c(O)c1)c1nc(-c2ccccc2)cc(-c2ccccc2)n1", "note": "[MK-28]", "values": [{"measurement": "% Enzyme Activity (relative to DMSO controls)", "setting": "panel of 391 kinases [1]", "result": 102.64, "unit": "%"}, {"measurement": "remaining activity at 1 µM", "setting": "panel of 391 kinases [1]; [27]", "result": 104, "unit": "%"}, {"measurement": "% Enzyme Activity (relative to DMSO controls)", "setting": "panel of 391 kinases [2]", "result": 110.18, "unit": "%"}, {"measurement": "remaining activity at 1 µM", "setting": "panel of 391 kinases [2]; [27]", "result": 111, "unit": "%"}, {"measurement": "% Enzyme Activity (relative to DMSO controls)", "setting": "panel of 391 kinases [3]", "result": 114.23, "unit": "%"}, {"measurement": "remaining activity at 1 µM", "setting": "panel of 391 kinases [3]; [27]", "result": 117, "unit": "%"}, {"measurement": "% Enzyme Activity (relative to DMSO controls)", "setting": "panel of 391 kinases [4]", "result": 100.16, "unit": "%"}, {"measurement": "remaining activity at 1 µM", "setting": "panel of 391 kinases [4]; [27]", "result": 101, "unit": "%"}, {"measurement": "% Enzyme Activity (relative to DMSO controls)", "setting": "panel of 391 kinases [5]", "result": 90.69, "unit": "%"}, {"measurement": "remaining activity at 1 µM", "setting": "panel of 391 kinases [5]; [27]", "result": 92.2, "unit": "%"}, {"measurement": "% Enzyme Activity (relative to DMSO controls)", "setting": "panel of 391 kinases [6]", "result": 98.55, "unit": "%"}, {"measurement": "remaining activity at 1 µM", "setting": "panel of 391 kinases [6]; [27]", "result": 99, "unit": "%"}, {"measurement": "% Enzyme Activity (relative to DMSO controls)", "setting": "panel of 391 kinases [7]", "result": 100.78, "unit": "%"}, {"measurement": "remaining activity at 1 µM", "setting": "panel of 391 kinases [7]; [27]", "result": 101, "unit": "%"}, {"measurement": "% Enzyme Activity (relative to DMSO controls)", "setting": "panel of 391 kinases [8]", "result": 99.48, "unit": "%"}, {"measurement": "remaining activity at 1 µM", "setting": "panel of 391 kinases [8]; [27]", "result": 101, "unit": "%"}, {"measurement": "% Enzyme Activity (relative to DMSO controls)", "setting": "panel of 391 kinases [9]", "result": 92.03, "unit": "%"}, {"measurement": "remaining activity at 1 µM", "setting": "panel of 391 kinases [9]; [27]", "result": 92.4, "unit": "%"}, {"measurement": "% Enzyme Activity (relative to DMSO controls)", "setting": "panel of 391 kinases [10]", "result": 109.27, "unit": "%"}, {"measurement": "remaining activity at 1 µM", "setting": "panel of 391 kinases [10]; [27]", "result": 111, "unit": "%"}, {"measurement": "% Enzyme Activity (relative to DMSO controls)", "setting": "panel of 391 kinases [11]", "result": 101.40, "unit": "%"}, {"measurement": "remaining activity at 1 µM", "setting": "panel of 391 kinases [11]; [27]", "result": 102, "unit": "%"}, {"measurement": "% Enzyme Activity (relative to DMSO controls)", "setting": "panel of 391 kinases [12]", "result": 116.76, "unit": "%"}, {"measurement": "remaining activity at 1 µM", "setting": "panel of 391 kinases [12]; [27]", "result": 117, "unit": "%"}, {"measurement": "% Enzyme Activity (relative to DMSO controls)", "setting": "panel of 391 kinases [13]; CDK5/p25", "result": 93.55, "unit": "%"}, {"measurement": "remaining activity at 1 µM", "setting": "panel of 391 kinases [13]; CDK5/p25", "result": 93.6, "unit": "%"}, {"measurement": "% Enzyme Activity (relative to DMSO controls)", "setting": "panel of 391 kinases [13]; CDK5/p35", "result": 96.39, "unit": "%"}, {"measurement": "remaining activity at 1 µM", "setting": "panel of 391 kinases [13]; CDK5/p35", "result": 96.6, "unit": "%"}, {"measurement": "% Enzyme Activity (relative to DMSO controls)", "setting": "panel of 391 kinases [14]", "result": 97.75, "unit": "%"}, {"measurement": "remaining activity at 1 µM", "setting": "panel of 391 kinases [14]; [27]", "result": 98.7, "unit": "%"}, {"measurement": "% Enzyme Activity (relative to DMSO controls)", "setting": "panel of 391 kinases [15]", "result": 86.38, "unit": "%"}, {"measurement": "remaining activity at 1 µM", "setting": "panel of 391 kinases [15]; [27]", "result": 87, "unit": "%"}, {"measurement": "% Enzyme Activity (relative to DMSO controls)", "setting": "panel of 391 kinases [16]", "result": 92.07, "unit": "%"}, {"measurement": "remaining activity at 1 µM", "setting": "panel of 391 kinases [16]; [27]", "result": 94.7, "unit": "%"}, {"measurement": "% Enzyme Activity (relative to DMSO controls)", "setting": "panel of 391 kinases [17]", "result": 102.49, "unit": "%"}, {"measurement": "remaining activity at 1 µM", "setting": "panel of 391 kinases [17]; [27]", "result": 104, "unit": "%"}, {"measurement": "% Enzyme Activity (relative to DMSO controls)", "setting": "panel of 391 kinases [18]", "result": 105.26, "unit": "%"}, {"measurement": "remaining activity at 1 µM", "setting": "panel of 391 kinases [18]; [27]", "result": 108, "unit": "%"}, {"measurement": "% Enzyme Activity (relative to DMSO controls)", "setting": "panel of 391 kinases [19]", "result": 99.55, "unit": "%"}, {"measurement": "remaining activity at 1 µM", "setting": "panel of 391 kinases [19]; [27]", "result": 103, "unit": "%"}, {"measurement": "% Enzyme Activity (relative to DMSO controls)", "setting": "panel of 391 kinases [20]", "result": 101.51, "unit": "%"}, {"measurement": "remaining activity at 1 µM", "setting": "panel of 391 kinases [20]; [27]", "result": 103, "unit": "%"}, {"measurement": "% Enzyme Activity (relative to DMSO controls)", "setting": "panel of 391 kinases [21]", "result": 89.27, "unit": "%"}, {"measurement": "remaining activity at 1 µM", "setting": "panel of 391 kinases [21]; [27]", "result": 91.6, "unit": "%"}, {"measurement": "% Enzyme Activity (relative to DMSO controls)", "setting": "panel of 391 kinases [22]", "result": 102.70, "unit": "%"}, {"measurement": "remaining activity at 1 µM", "setting": "panel of 391 kinases [22]; [27]", "result": 104, "unit": "%"}, {"measurement": "% Enzyme Activity (relative to DMSO controls)", "setting": "panel of 391 kinases [23]", "result": 102.82, "unit": "%"}, {"measurement": "remaining activity at 1 µM", "setting": "panel of 391 kinases [23]; [27]", "result": 106, "unit": "%"}, {"measurement": "% Enzyme Activity (relative to DMSO controls)", "setting": "panel of 391 kinases [24]", "result": 103.69, "unit": "%"}, {"measurement": "remaining activity at 1 µM", "setting": "panel of 391 kinases [24]; [27]", "result": 105, "unit": "%"}, {"measurement": "% Enzyme Activity (relative to DMSO controls)", "setting": "panel of 391 kinases [25]", "result": 107.45, "unit": "%"}, {"measurement": "remaining activity at 1 µM", "setting": "panel of 391 kinases [25]; [27]", "result": 113, "unit": "%"}, {"measurement": "% Enzyme Activity (relative to DMSO controls)", "setting": "panel of 391 kinases [26]", "result": 106.19, "unit": "%"}, {"measurement": "remaining activity at 1 µM", "setting": "panel of 391 kinases [26]; [27]", "result": 108, "unit": "%"}]}
